Results from BindingDB's records for doi:10.1016/j.bmcl.2004.04.032 (Bristol-Myers Squibb, 2004).

Each compound was assayed against T1, Thyroid hormone receptor alpha (Homo sapiens, UniProt P10827) (assay: TRalpha-Binding Assay.). Conditions: not given.
T1 sequence (P10827 whole entry): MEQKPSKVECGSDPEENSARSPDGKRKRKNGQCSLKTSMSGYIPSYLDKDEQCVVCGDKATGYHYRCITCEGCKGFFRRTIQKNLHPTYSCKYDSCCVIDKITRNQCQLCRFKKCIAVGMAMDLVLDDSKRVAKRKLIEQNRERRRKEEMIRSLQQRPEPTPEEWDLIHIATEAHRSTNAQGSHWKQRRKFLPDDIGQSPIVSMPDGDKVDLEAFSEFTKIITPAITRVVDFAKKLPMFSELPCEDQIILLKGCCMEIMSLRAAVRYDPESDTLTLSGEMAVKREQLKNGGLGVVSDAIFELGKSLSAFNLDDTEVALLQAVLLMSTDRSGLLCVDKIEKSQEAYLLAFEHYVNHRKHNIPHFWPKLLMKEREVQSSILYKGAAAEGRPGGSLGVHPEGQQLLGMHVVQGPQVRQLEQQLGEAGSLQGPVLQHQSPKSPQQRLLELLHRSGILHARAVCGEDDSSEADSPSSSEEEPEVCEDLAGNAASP

IC50	SMILES
18 nM	O=C(O)Cc1cc(Br)c(Oc2ccc(O)c(C(=O)NCC(c3ccccc3)c3ccccc3)c2)c(Br)c1 [2-(3,5-dibromo-4-{3-[(2,2-diphenylethyl)carbamoyl]-4-hydroxyphenoxy}phenyl)acetic acid]
244 nM	O=C(O)Cc1cc(Br)c(Oc2ccc(O)c(Oc3ccccc3C(F)(F)F)c2)c(Br)c1 [2-(3,5-dibromo-4-{4-hydroxy-3-[2-(trifluoromethyl)phenoxy]phenoxy}phenyl)acetic acid]
50 nM	O=C(O)Cc1cc(Br)c(Oc2ccc(O)c(Oc3cccc(C(F)(F)F)c3)c2)c(Br)c1 [2-(3,5-dibromo-4-{4-hydroxy-3-[3-(trifluoromethyl)phenoxy]phenoxy}phenyl)acetic acid]
326 nM	O=C(O)Cc1cc(Br)c(Oc2ccc(O)c(Oc3ccc(C(F)(F)F)cc3)c2)c(Br)c1 [2-(3,5-dibromo-4-{4-hydroxy-3-[4-(trifluoromethyl)phenoxy]phenoxy}phenyl)acetic acid]
15 nM	O=C(O)Cc1cc(Br)c(Oc2ccc(O)c(C(=O)NCCc3ccccc3)c2)c(Br)c1 [2-(3,5-dibromo-4-{4-hydroxy-3-[(2-phenylethyl)carbamoyl]phenoxy}phenyl)acetic acid]
203 nM	O=C(O)Cc1cc(Br)c(Oc2ccc(O)c(C(=O)NCCCc3ccccc3)c2)c(Br)c1 [2-(3,5-dibromo-4-{4-hydroxy-3-[(3-phenylpropyl)carbamoyl]phenoxy}phenyl)acetic acid]
281 nM	O=C(O)Cc1cc(Br)c(Oc2ccc(O)c(C(=O)NCCCCc3ccccc3)c2)c(Br)c1 [2-(3,5-dibromo-4-{4-hydroxy-3-[(4-phenylbutyl)carbamoyl]phenoxy}phenyl)acetic acid]
127 nM	O=C(O)Cc1cc(Cl)c(Oc2ccc(O)c(C(=O)NCCc3ccccc3)c2)c(Cl)c1 [2-(3,5-dichloro-4-{4-hydroxy-3-[(2-phenylethyl)carbamoyl]phenoxy}phenyl)acetic acid]
123 nM	O=C(O)Cc1cc(Br)c(Oc2ccc(O)c(Oc3ccccc3)c2)c(Br)c1 [2-[3,5-dibromo-4-(4-hydroxy-3-phenoxyphenoxy)phenyl]acetic acid]
96 nM	COc1ccccc1CCNC(=O)c1cc(Oc2c(Br)cc(CC(=O)O)cc2Br)ccc1O [2-[3,5-dibromo-4-(4-hydroxy-3-{[2-(2-methoxyphenyl)ethyl]carbamoyl}phenoxy)phenyl]acetic acid]
93 nM	COc1cccc(CCNC(=O)c2cc(Oc3c(Br)cc(CC(=O)O)cc3Br)ccc2O)c1 [2-[3,5-dibromo-4-(4-hydroxy-3-{[2-(3-methoxyphenyl)ethyl]carbamoyl}phenoxy)phenyl]acetic acid]
228 nM	COc1ccc(CCNC(=O)c2cc(Oc3c(Br)cc(CC(=O)O)cc3Br)ccc2O)cc1 [2-[3,5-dibromo-4-(4-hydroxy-3-{[2-(4-methoxyphenyl)ethyl]carbamoyl}phenoxy)phenyl]acetic acid]
1130 nM	O=C(O)Cc1cc(Br)c(Oc2ccc(O)c(C(=O)NCCc3ccccn3)c2)c(Br)c1 [2-[3,5-dibromo-4-(4-hydroxy-3-{[2-(pyridin-2-yl)ethyl]carbamoyl}phenoxy)phenyl]acetic acid]
1470 nM	O=C(O)Cc1cc(Br)c(Oc2ccc(O)c(Oc3ccccc3O)c2)c(Br)c1 [2-{3,5-dibromo-4-[4-hydroxy-3-(2-hydroxyphenoxy)phenoxy]phenyl}acetic acid]
549 nM	O=C(O)Cc1cc(Br)c(Oc2ccc(O)c(Oc3cccc(O)c3)c2)c(Br)c1 [2-{3,5-dibromo-4-[4-hydroxy-3-(3-hydroxyphenoxy)phenoxy]phenyl}acetic acid]
499 nM	O=C(O)Cc1cc(Br)c(Oc2ccc(O)c(Oc3cccc(-c4ccccc4)c3)c2)c(Br)c1 [2-{3,5-dibromo-4-[4-hydroxy-3-(3-phenylphenoxy)phenoxy]phenyl}acetic acid]
237 nM	O=C(O)Cc1cc(Br)c(Oc2ccc(O)c(Oc3ccc(O)cc3)c2)c(Br)c1 [2-{3,5-dibromo-4-[4-hydroxy-3-(4-hydroxyphenoxy)phenoxy]phenyl}acetic acid]
424 nM	O=C(O)Cc1cc(Br)c(Oc2ccc(O)c(C(=O)Nc3ccccc3)c2)c(Br)c1 [2-{3,5-dibromo-4-[4-hydroxy-3-(phenylcarbamoyl)phenoxy]phenyl}acetic acid]
84 nM	O=C(O)Cc1cc(Br)c(Oc2ccc(O)c(C(=O)NCc3ccccc3)c2)c(Br)c1 [2-{4-[3-(benzylcarbamoyl)-4-hydroxyphenoxy]-3,5-dibromophenyl}acetic acid]

Same assay, conditions: pH 7; 4 °C

IC50	SMILES
30 nM	O=C(O)Cc1cc(Cl)c(Oc2ccc(O)c(-c3cccc(OC(F)F)c3)c2)c(Cl)c1 [2-(3,5-dichloro-4-{3-[3-(difluoromethoxy)phenyl]-4-hydroxyphenoxy}phenyl)acetic acid]
18 nM	O=C(O)Cc1cc(Cl)c(Oc2ccc(O)c(-c3ccccc3C(F)(F)F)c2)c(Cl)c1 [2-(3,5-dichloro-4-{4-hydroxy-3-[2-(trifluoromethyl)phenyl]phenoxy}phenyl)acetic acid]
124 nM	CC(C)c1cccc(-c2cc(Oc3c(Cl)cc(CC(=O)O)cc3Cl)ccc2O)c1 [2-(3,5-dichloro-4-{4-hydroxy-3-[3-(propan-2-yl)phenyl]phenoxy}phenyl)acetic acid]
100 nM	O=C(O)Cc1cc(Cl)c(Oc2ccc(O)c(-c3cccc(OC(F)(F)F)c3)c2)c(Cl)c1 [2-(3,5-dichloro-4-{4-hydroxy-3-[3-(trifluoromethoxy)phenyl]phenoxy}phenyl)acetic acid]
40 nM	O=C(O)Cc1cc(Cl)c(Oc2ccc(O)c(-c3cccc(C(F)(F)F)c3)c2)c(Cl)c1 [2-(3,5-dichloro-4-{4-hydroxy-3-[3-(trifluoromethyl)phenyl]phenoxy}phenyl)acetic acid]
515 nM	O=C(O)Cc1cc(Cl)c(Oc2ccc(O)c(-c3ccc(C(F)(F)F)cc3)c2)c(Cl)c1 [2-(3,5-dichloro-4-{4-hydroxy-3-[4-(trifluoromethyl)phenyl]phenoxy}phenyl)acetic acid]
258 nM	O=C(O)Cc1cc(Cl)c(Oc2ccc(O)c(C3CCCCC3)c2)c(Cl)c1 [2-[3,5-dichloro-4-(3-cyclohexyl-4-hydroxyphenoxy)phenyl]acetic acid]
152 nM	O=C(O)Cc1cc(Cl)c(Oc2ccc(O)c(-c3ccccc3)c2)c(Cl)c1 [2-[3,5-dichloro-4-(4-hydroxy-3-phenylphenoxy)phenyl]acetic acid]
13 nM	CCc1cccc(-c2cc(Oc3c(Cl)cc(CC(=O)O)cc3Cl)ccc2O)c1 [2-{3,5-dichloro-4-[3-(3-ethylphenyl)-4-hydroxyphenoxy]phenyl}acetic acid]
558 nM	O=C(O)Cc1cc(Cl)c(Oc2ccc(O)c(-c3nccs3)c2)c(Cl)c1 [2-{3,5-dichloro-4-[4-hydroxy-3-(1,3-thiazol-2-yl)phenoxy]phenyl}acetic acid]
1050 nM	O=C(O)Cc1cc(Cl)c(Oc2ccc(O)c(-c3ccccc3O)c2)c(Cl)c1 [2-{3,5-dichloro-4-[4-hydroxy-3-(2-hydroxyphenyl)phenoxy]phenyl}acetic acid]
1160 nM	O=C(O)Cc1cc(Cl)c(Oc2ccc(O)c(-c3cccc(O)c3)c2)c(Cl)c1 [2-{3,5-dichloro-4-[4-hydroxy-3-(3-hydroxyphenyl)phenoxy]phenyl}acetic acid]
297 nM	COc1cccc(-c2cc(Oc3c(Cl)cc(CC(=O)O)cc3Cl)ccc2O)c1 [2-{3,5-dichloro-4-[4-hydroxy-3-(3-methoxyphenyl)phenoxy]phenyl}acetic acid]
454 nM	O=C(O)Cc1cc(Cl)c(Oc2ccc(O)c(-c3cccc(-c4ccccc4)c3)c2)c(Cl)c1 [2-{3,5-dichloro-4-[4-hydroxy-3-(3-phenylphenyl)phenoxy]phenyl}acetic acid]
847 nM	O=C(O)Cc1cc(Cl)c(Oc2ccc(O)c(-c3ccc(O)cc3)c2)c(Cl)c1 [2-{3,5-dichloro-4-[4-hydroxy-3-(4-hydroxyphenyl)phenoxy]phenyl}acetic acid]
1520 nM	O=C(O)Cc1cc(Cl)c(Oc2ccc(O)c(-c3ccccn3)c2)c(Cl)c1 [2-{3,5-dichloro-4-[4-hydroxy-3-(pyridin-2-yl)phenoxy]phenyl}acetic acid]
819 nM	O=C(O)Cc1cc(Cl)c(Oc2ccc(O)c(-c3cccnc3)c2)c(Cl)c1 [2-{3,5-dichloro-4-[4-hydroxy-3-(pyridin-3-yl)phenoxy]phenyl}acetic acid]
145 nM	O=C(O)Cc1cc(Cl)c(Oc2ccc(O)c(-c3ccncc3)c2)c(Cl)c1 [2-{3,5-dichloro-4-[4-hydroxy-3-(pyridin-4-yl)phenoxy]phenyl}acetic acid]
269 nM	O=C(O)Cc1cc(Cl)c(Oc2ccc(O)c(-c3cncnc3)c2)c(Cl)c1 [2-{3,5-dichloro-4-[4-hydroxy-3-(pyrimidin-5-yl)phenoxy]phenyl}acetic acid]
